This note sets out measurements from the OligoGym collection.

Oligonucleotides are given in HELM: sugar(base)linkage, 5' to 3'; d 2'-deoxyribose, r ribose, m 2'-O-methylribose, p phosphate. ss, as = sense and antisense strand
Note: test concentration or dose not given here.

The target of the series is UBE2D3. Description: reporter assay of Huesken 2005. The note with it: siRNA.
In turn, “RNA1{r(U)p.r(A)p.r(U)p.r(C)p.r(A)p.r(A)p.r(G)p.r(G)p.r(C)p.r(G)p.r(G)p.r(U)p.r(G)p.r(U)p.r(A)p.r(U)p.r(U)p.r(C)p.r(U)p.d(T)p.d(T)}|RNA2{r(A)p.r(G)p.r(A)p.r(A)p.r(U)p.r(A)p.r(C)p.r(A)p.r(C)p.r(C)p.r(G)p.r(C)p.r(C)p.r(U)p.r(U)p.r(G)p.r(A)p.r(U)p.r(A)p.d(T)p.d(G)}$$$RNA1{StrandType:ss}|RNA2{StrandType:as}$” displayed a normalised inhibition (eCFP-eYFP dual reporter) of 99.5%. For the substance “RNA1{r(U)p.r(U)p.r(G)p.r(C)p.r(A)p.r(U)p.r(U)p.r(U)p.r(A)p.r(C)p.r(A)p.r(A)p.r(C)p.r(A)p.r(A)p.r(G)p.r(A)p.r(A)p.r(U)p.d(T)p.d(T)}|RNA2{r(A)p.r(U)p.r(U)p.r(C)p.r(U)p.r(U)p.r(G)p.r(U)p.r(U)p.r(G)p.r(U)p.r(A)p.r(A)p.r(A)p.r(U)p.r(G)p.r(C)p.r(A)p.r(A)p.d(C)p.d(C)}$$$RNA1{StrandType:ss}|RNA2{StrandType:as}$”, the normalised inhibition (eCFP-eYFP dual reporter) is 68.4%. “RNA1{r(C)p.r(U)p.r(A)p.r(U)p.r(G)p.r(U)p.r(G)p.r(A)p.r(U)p.r(C)p.r(C)p.r(A)p.r(A)p.r(A)p.r(C)p.r(C)p.r(C)p.r(A)p.r(G)p.d(T)p.d(T)}|RNA2{r(C)p.r(U)p.r(G)p.r(G)p.r(G)p.r(U)p.r(U)p.r(U)p.r(G)p.r(G)p.r(A)p.r(U)p.r(C)p.r(A)p.r(C)p.r(A)p.r(U)p.r(A)p.r(G)p.d(C)p.d(A)}$$$RNA1{StrandType:ss}|RNA2{StrandType:as}$”: the normalised inhibition (eCFP-eYFP dual reporter) stood at 95.8%. Substance “RNA1{r(A)p.r(A)p.r(G)p.r(C)p.r(C)p.r(A)p.r(C)p.r(A)p.r(A)p.r(U)p.r(U)p.r(A)p.r(U)p.r(G)p.r(G)p.r(G)p.r(A)p.r(C)p.r(C)p.d(T)p.d(T)}|RNA2{r(G)p.r(G)p.r(U)p.r(C)p.r(C)p.r(C)p.r(A)p.r(U)p.r(A)p.r(A)p.r(U)p.r(U)p.r(G)p.r(U)p.r(G)p.r(G)p.r(C)p.r(U)p.r(U)p.d(G)p.d(C)}$$$RNA1{StrandType:ss}|RNA2{StrandType:as}$” showed a normalised inhibition (eCFP-eYFP dual reporter) of 52%. The substance “RNA1{r(G)p.r(A)p.r(C)p.r(U)p.r(A)p.r(C)p.r(C)p.r(C)p.r(C)p.r(U)p.r(U)p.r(C)p.r(A)p.r(A)p.r(A)p.r(C)p.r(C)p.r(A)p.r(C)p.d(T)p.d(T)}|RNA2{r(G)p.r(U)p.r(G)p.r(G)p.r(U)p.r(U)p.r(U)p.r(G)p.r(A)p.r(A)p.r(G)p.r(G)p.r(G)p.r(G)p.r(U)p.r(A)p.r(G)p.r(U)p.r(C)p.d(T)p.d(G)}$$$RNA1{StrandType:ss}|RNA2{StrandType:as}$” yielded a normalised inhibition (eCFP-eYFP dual reporter) of 87.6%. Turning to “RNA1{r(U)p.r(U)p.r(C)p.r(U)p.r(G)p.r(C)p.r(A)p.r(G)p.r(G)p.r(U)p.r(C)p.r(C)p.r(A)p.r(G)p.r(U)p.r(U)p.r(G)p.r(G)p.r(G)p.d(T)p.d(T)}|RNA2{r(C)p.r(C)p.r(C)p.r(A)p.r(A)p.r(C)p.r(U)p.r(G)p.r(G)p.r(A)p.r(C)p.r(C)p.r(U)p.r(G)p.r(C)p.r(A)p.r(G)p.r(A)p.r(A)p.d(C)p.d(A)}$$$RNA1{StrandType:ss}|RNA2{StrandType:as}$”, the normalised inhibition (eCFP-eYFP dual reporter) worked out at 50%. Regarding “RNA1{r(U)p.r(A)p.r(A)p.r(U)p.r(G)p.r(A)p.r(C)p.r(A)p.r(G)p.r(C)p.r(C)p.r(C)p.r(A)p.r(U)p.r(A)p.r(U)p.r(C)p.r(A)p.r(A)p.d(T)p.d(T)}|RNA2{r(U)p.r(U)p.r(G)p.r(A)p.r(U)p.r(A)p.r(U)p.r(G)p.r(G)p.r(G)p.r(C)p.r(U)p.r(G)p.r(U)p.r(C)p.r(A)p.r(U)p.r(U)p.r(A)p.d(G)p.d(G)}$$$RNA1{StrandType:ss}|RNA2{StrandType:as}$”, the normalised inhibition (eCFP-eYFP dual reporter) worked out at 97.7%.

Substance “RNA1{r(G)p.r(G)p.r(U)p.r(C)p.r(C)p.r(A)p.r(G)p.r(U)p.r(U)p.r(G)p.r(G)p.r(G)p.r(G)p.r(A)p.r(U)p.r(G)p.r(A)p.r(U)p.r(A)p.d(T)p.d(T)}|RNA2{r(U)p.r(A)p.r(U)p.r(C)p.r(A)p.r(U)p.r(C)p.r(C)p.r(C)p.r(C)p.r(A)p.r(A)p.r(C)p.r(U)p.r(G)p.r(G)p.r(A)p.r(C)p.r(C)p.d(T)p.d(G)}$$$RNA1{StrandType:ss}|RNA2{StrandType:as}$” displayed a normalised inhibition (eCFP-eYFP dual reporter) of 93.7%. Consider “RNA1{r(C)p.r(A)p.r(G)p.r(U)p.r(A)p.r(A)p.r(U)p.r(G)p.r(G)p.r(C)p.r(A)p.r(G)p.r(C)p.r(A)p.r(U)p.r(U)p.r(U)p.r(G)p.r(U)p.d(T)p.d(T)}|RNA2{r(A)p.r(C)p.r(A)p.r(A)p.r(A)p.r(U)p.r(G)p.r(C)p.r(U)p.r(G)p.r(C)p.r(C)p.r(A)p.r(U)p.r(U)p.r(A)p.r(C)p.r(U)p.r(G)p.d(T)p.d(T)}$$$RNA1{StrandType:ss}|RNA2{StrandType:as}$”, for which the normalised inhibition (eCFP-eYFP dual reporter) worked out at 97.4%. As to “RNA1{r(G)p.r(G)p.r(U)p.r(C)p.r(G)p.r(C)p.r(C)p.r(U)p.r(G)p.r(C)p.r(U)p.r(U)p.r(U)p.r(A)p.r(A)p.r(C)p.r(A)p.r(A)p.r(U)p.d(T)p.d(T)}|RNA2{r(A)p.r(U)p.r(U)p.r(G)p.r(U)p.r(U)p.r(A)p.r(A)p.r(A)p.r(G)p.r(C)p.r(A)p.r(G)p.r(G)p.r(C)p.r(G)p.r(A)p.r(C)p.r(C)p.d(A)p.d(C)}$$$RNA1{StrandType:ss}|RNA2{StrandType:as}$”, the normalised inhibition (eCFP-eYFP dual reporter) stood at 84.5%. As for “RNA1{r(G)p.r(A)p.r(U)p.r(U)p.r(G)p.r(C)p.r(A)p.r(C)p.r(G)p.r(G)p.r(A)p.r(U)p.r(C)p.r(U)p.r(A)p.r(U)p.r(A)p.r(A)p.r(A)p.d(T)p.d(T)}|RNA2{r(U)p.r(U)p.r(U)p.r(A)p.r(U)p.r(A)p.r(G)p.r(A)p.r(U)p.r(C)p.r(C)p.r(G)p.r(U)p.r(G)p.r(C)p.r(A)p.r(A)p.r(U)p.r(C)p.d(T)p.d(C)}$$$RNA1{StrandType:ss}|RNA2{StrandType:as}$”, the normalised inhibition (eCFP-eYFP dual reporter) amounted to 92.4%. Substance “RNA1{r(C)p.r(A)p.r(G)p.r(C)p.r(A)p.r(U)p.r(U)p.r(U)p.r(G)p.r(U)p.r(C)p.r(U)p.r(C)p.r(G)p.r(A)p.r(U)p.r(A)p.r(U)p.r(U)p.d(T)p.d(T)}|RNA2{r(A)p.r(A)p.r(U)p.r(A)p.r(U)p.r(C)p.r(G)p.r(A)p.r(G)p.r(A)p.r(C)p.r(A)p.r(A)p.r(A)p.r(U)p.r(G)p.r(C)p.r(U)p.r(G)p.d(C)p.d(C)}$$$RNA1{StrandType:ss}|RNA2{StrandType:as}$” yielded a normalised inhibition (eCFP-eYFP dual reporter) of 95.2%.

Substance “RNA1{r(A)p.r(A)p.r(G)p.r(G)p.r(U)p.r(U)p.r(G)p.r(C)p.r(A)p.r(U)p.r(U)p.r(U)p.r(A)p.r(C)p.r(A)p.r(A)p.r(C)p.r(A)p.r(A)p.d(T)p.d(T)}|RNA2{r(U)p.r(U)p.r(G)p.r(U)p.r(U)p.r(G)p.r(U)p.r(A)p.r(A)p.r(A)p.r(U)p.r(G)p.r(C)p.r(A)p.r(A)p.r(C)p.r(C)p.r(U)p.r(U)p.d(A)p.d(G)}$$$RNA1{StrandType:ss}|RNA2{StrandType:as}$” showed a normalised inhibition (eCFP-eYFP dual reporter) of 83%. In the case of “RNA1{r(A)p.r(C)p.r(A)p.r(A)p.r(U)p.r(U)p.r(C)p.r(A)p.r(U)p.r(U)p.r(U)p.r(U)p.r(C)p.r(C)p.r(U)p.r(A)p.r(C)p.r(A)p.r(G)p.d(T)p.d(T)}|RNA2{r(C)p.r(U)p.r(G)p.r(U)p.r(A)p.r(G)p.r(G)p.r(A)p.r(A)p.r(A)p.r(A)p.r(U)p.r(G)p.r(A)p.r(A)p.r(U)p.r(U)p.r(G)p.r(U)p.d(C)p.d(A)}$$$RNA1{StrandType:ss}|RNA2{StrandType:as}$” it was 76.2%.
